According to PubChem BioAssay AID328 (DTP/NCI, 2004):
“And” between values parts separate entries of the source, which are not always exact repeats. Equal entries are not always repeated. Toxic doses and inconclusive results are not listed.

Tested on: BDF1 mice, P388 leukemia ip, median survival T/C
Assay: NCI In Vivo Anticancer Drug Screen. Data for tumor model P388 Leukemia (intraperitoneal) in B6D2F1 (BDF1) mice
Details: endpoint: median survival time, higher = longer survival
Outline: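 Reported as T/C, where T is the survival measurement in dosed animals and C the same measurement in vehicle controls.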

[1] = dose: 50.0 mg/kg/injection, schedule: Q01DX009 (ip), vehicle: saline
[2] = dose: 50.0 mg/kg/injection, schedule: Q04DX003 (ip), vehicle: saline
[3] = dose: 100.0 mg/kg/injection, schedule: Q01DX009 (ip), vehicle: saline
[4] = dose: 100.0 mg/kg/injection, schedule: Q04DX003 (ip), vehicle: saline
[5] = dose: 200.0 mg/kg/injection, schedule: Q04DX003 (ip), vehicle: saline
[6] = dose: 100.0 mg/kg/injection, schedule: Q01DX001 (ip), vehicle: saline with Tween-80
[7] = dose: 100.0 mg/kg/injection, schedule: Q01DX009 (ip), vehicle: saline with Tween-80
[8] = dose: 25.0 mg/kg/injection, schedule: Q01DX009 (ip), vehicle: saline with Tween-80

COc1ccc(NC(=O)C(C)C(C)=O)cc1 (stereo not given)
T/C (dose: 12.5 mg/kg/injection, schedule: Q01DX009 (ip), vehicle: saline): 91 % of control | T/C (dose: 25.0 mg/kg/injection, schedule: Q01DX009 (ip), vehicle: saline): 94 % of control | T/C (dose: 25.0 mg/kg/injection, schedule: Q04DX003 (ip), vehicle: saline): 102 % of control | T/C [1]: 98 % of control | T/C [2]: 93 % of control | T/C [3]: 116 % of control | T/C [4]: 100 % of control | T/C (dose: 200.0 mg/kg/injection, schedule: Q01DX009 (ip), vehicle: saline): 100 % of control | T/C [5]: 109 % of control | T/C (dose: 400.0 mg/kg/injection, schedule: Q01DX009 (ip), vehicle: saline): 108 % of control | T/C (dose: 400.0 mg/kg/injection, schedule: Q04DX003 (ip), vehicle: saline): 111 % of control

O=[N+]([O-])C=C1CCCCC1
T/C (dose: 25.0 mg/kg/injection, schedule: Q01DX001 (ip), vehicle: saline with Tween-80): 113 % of control | T/C (dose: 50.0 mg/kg/injection, schedule: Q01DX001 (ip), vehicle: saline with Tween-80): 118 % of control | T/C [6]: 113 % of control

CC1(CNC(=O)C(=O)NCC2(C)CO2)CO1 (stereo not given)
T/C (dose: 50.0 mg/kg/injection, schedule: Q04DX003 (ip), vehicle: saline with Tween-80): 158 % of control | T/C [7]: 154 % of control | T/C (dose: 100.0 mg/kg/injection, schedule: Q04DX003 (ip), vehicle: saline with Tween-80): 191 % of control | T/C (dose: 132.0 mg/kg/injection, schedule: Q04DX003 (ip), vehicle: saline with Tween-80): 208 % of control | T/C (dose: 200.0 mg/kg/injection, schedule: Q04DX003 (ip), vehicle: saline with Tween-80): 183 % of control | T/C (dose: 300.0 mg/kg/injection, schedule: Q04DX003 (ip), vehicle: saline with Tween-80): 233 % of control

N#Cc1c(O)oc2cccnc12
T/C (dose: 50.0 mg/kg/injection, schedule: Q01DX005 (ip), vehicle: saline with Tween-80): 92 % of control | T/C (dose: 100.0 mg/kg/injection, schedule: Q01DX005 (ip), vehicle: saline with Tween-80): 97 % of control | T/C (dose: 200.0 mg/kg/injection, schedule: Q01DX005 (ip), vehicle: saline with Tween-80): 103 % of control

O=C(Nc1ccc(C2=NCCCN2)cc1)Nc1cccc(C(=O)Nc2ccc(C3=NCCCN3)cc2)c1
T/C (dose: 16.5 mg/kg/injection, schedule: Q01DX009 (ip), vehicle: saline with Tween-80): 200 % of control | T/C [8]: 272 % of control

O=NN(CCF)C(=O)NC12CC3CC(CC(C3)C1)C2
T/C (dose: 5.5 mg/kg/injection, schedule: Q04DX003 (ip), vehicle: Klucel (hydroxypropylcellulose) (HPC)): 104 % of control | T/C (dose: 11.0 mg/kg/injection, schedule: Q04DX003 (ip), vehicle: Klucel (hydroxypropylcellulose) (HPC)): 112 % of control | T/C (dose: 12.0 mg/kg/injection, schedule: Q01DX009 (ip), vehicle: Klucel (hydroxypropylcellulose) (HPC)): 158 % of control | T/C (dose: 22.0 mg/kg/injection, schedule: Q04DX003 (ip), vehicle: Klucel (hydroxypropylcellulose) (HPC)): 162 % of control and 180 % of control | T/C (dose: 25.0 mg/kg/injection, schedule: Q01DX009 (ip), vehicle: Klucel (hydroxypropylcellulose) (HPC)): 250 % of control | T/C (dose: 33.0 mg/kg/injection, schedule: Q04DX003 (ip), vehicle: Klucel (hydroxypropylcellulose) (HPC)): 240 % of control | T/C (dose: 50.0 mg/kg/injection, schedule: Q04DX003 (ip), vehicle: Klucel (hydroxypropylcellulose) (HPC)): 245 % of control and 300 % of control

CCCCn1c2nc(=O)[nH]c(=O)c-2[n+]([O-])c2ccccc21
T/C [6]: 108 % of control

c1cc2cnc3cccc4cnc(c1)c2c43
T/C (dose: 100.0 mg/kg/injection, schedule: Q01DX001 (ip), vehicle: saline sonified): 100 % of control | T/C (dose: 400.0 mg/kg/injection, schedule: Q01DX001 (ip), vehicle: saline sonified): 100 % of control

CC(C)(C)OC(=O)CNC(=O)CCl
T/C [2]: 100 % of control | T/C [4]: 100 % of control | T/C [5]: 108 % of control

CC(=O)Nc1ccc(S(=O)(=O)Nc2ccc([N+](=O)[O-])cc2)cc1
T/C [8]: 104 % of control | T/C (dose: 50.0 mg/kg/injection, schedule: Q01DX009 (ip), vehicle: water): 95 % of control | T/C [7]: 97 % of control | T/C (dose: 200.0 mg/kg/injection, schedule: Q01DX009 (ip), vehicle: saline with Tween-80): 97 % of control | T/C (dose: 400.0 mg/kg/injection, schedule: Q01DX009 (ip), vehicle: saline with Tween-80): 106 % of control

[N-]=[N+]=C1C=C(c2ccccc2)N=C1c1ccccc1
T/C [1]: 109 % of control | T/C [3]: 88 % of control
